Test results as given in patent US20020052408A1, “Methods for protection of stratified squamous epithelium against injury by noxious substances and novel agents for use therefor” (priority 2000, published 2002).

How the values were obtained:
[1] = test system: rabbit esophageal epithelium; experiment: Ussing chamber method for assessing esophageal epithelial protection against acid injury (60 mM HCl, pH 1.6, decline in electrical resistance R); format: cell-based; conditions: for protective activity, Resistance Index (RI)=[(Ragent/Rcontrol)-1], RI >0.2 considered significant: 2, 4 and/or 8 mM for 15 min, 30 min and/or >30 min before 60 mM HCl pH 1.6 for 1 hour, N=1 tissue/dose, FIG. 9; for protection against acid injury after brief luminal exposure: 1 min exposure to 4 mM agent, multiple washouts over 4 hours, FIG. 5; for lowest protective dose: pH 1.6, 1 hour; for protective effect, single exposure: single 1 min exposure
Excerpt: Previously, a test system was developed in the Ussing chamber to identify and characterize agents with cytoprotective effects against acid injury to the tissue. Briefly, the esophageal epithelium is mounted in the Ussing chamber so that acid (or acid-pepsin) could be added to the luminal bath while monitoring changes in electrical resistance (R). The changes in R are an effective means to identify damage by acid or acid-pepsin since damage is heralded by an increase in paracellular permeability and this reflected by a decline in R. In effect, the ability of an agent or compound to prevent the acid-induced decline in R without altering luminal pH (which excludes protection being mediated by acid buffering or neutralization) is evidence for a cytoprotective effect, i.e. protection directly exerted by the agent or compound on the epithelium. Further, we previously established that the ability of an agent or compound to prevent the acid-induced decline in R in this Ussing chamber model of acid injury was an accurate predictor, and therefore surrogate marker, of its ability to protect rabbit esophageal epithelium against acid injury in vivo (U.S. Pat. Nos. 5,374,537 and 5,189,056).
(§1) New Zealand white rabbits weighing between 8-9 lbs are sacrificed by administering an intravenous overdose of phenobarbital (60 mg/mL). The esophagus is excised, opened, and pinned mucosal surface down in a paraffin tray containing ice-Cold oxygenated normal Ringer's solution. The submucosa is grasped with hemostats, lifted up, and dissected free of the underlying mucosa with a scalpel. This process yields a sheet of tissue consisting of stratified squamous epithelium and a small amount of underlying connective tissue. From this tissue, four sections are cut and mounted as flat sheets between Lucite half-Chambers with an aperture of 1.13 cm^2 for measurements of potential difference (PD), short circuit current (Isc) and, from these values, calculation of transmucosal electrical resistance (R). Tissues are bathed with normal Ringer solution composed of the following (in mmol/L): Na 140; Cl 119.8; K 5.2; HCO3 25; Ca 1.2; Mg 1.2; HPO4 2.4; H2PO4 0.4; and 268 mOsm/kg water, with pH 7.5 when gassed with 95% O2/5% CO2 at 37° C. Mucosal and serosal solutions are connected to calomel and Ag—AgCl electrodes with Ringer's-agar bridges for measurements of PD and automatic short-Circuiting of the tissue with a voltage clamp (World Precision Instruments Inc., Sarasota, Fla.). Tissues are monitored continuously in the open-circuit state except for 5-10 second periods when the Isc is read. Electrical resistance (R) was calculated using Ohm's Law from the open-circuit PD and Isc.
To test the protective effect of an agent against acid injury to esophageal epithelium, 45 minutes after mounting (equilibration period), tissues paired by R had for one of the pair varying amounts of an agent added to the luminal bath while the other part of the pair received vehicle (normal Ringer solution) as control. After varying periods of exposure to the agent, 60 mM HCl was added to the luminal (mucosal) solution to reduce pH to 1.6; the pH was monitored and maintained throughout the 1 hr of exposure for all tissues to ensure uniform risk of injury. This negated any protective effect as being due to buffering by the agent. In some experiments the power of the protective effect of an agent was determined after varying periods of luminal exposure by washout prior to acid exposure, i.e. replacement of the luminal bath containing agent with normal Ringer Solution that contained only vehicle. R was then monitored before and during acidification with 60 mM HCl and the results for agent and controls presented as percent decline in R from pre-acidification values. […]

[2] = test system: rabbit esophageal epithelium; experiment: In vivo delivery of agent in drinking water, then Ussing chamber acid injury test (60 mM HCl, pH 1.6); conditions: for protective effect after in vivo delivery in drinking water: rabbit, acid on day 5
Procedure: as §1
(§2) New Zealand white rabbits weighing between 8-9 lbs were given 25 ml of water containing test agent or water alone (control) to drink once each morning on 4 consecutive days. Following consumption of the 25 ml of water, the rabbits had their normal water source restored and they ate and drank normally for the remainder of each day. Twenty-four hours after the last dose, the rabbits were sacrificed by administering an intravenous overdose of phenobarbital (60 mg/mL). The esophagus was excised and processed as above to test its ability to resist acid injury upon exposure to 60 mM HCl , pH 1.6, for 1 hr. Three sections of rabbit esophageal epithelium that had been exposed to test agent and three sections exposed to water alone (control) were mounted, equilibrated and then simultaneously exposed to acid on the same day without the operator being aware of which were treated and which were control sections of epithelium. Initial R values in all experiments were similar preacidification. […] Significance was taken as a difference in values of p<0.05.

[3] = test system: rabbit esophageal epithelium; experiment: In vivo delivery of agent in drinking water, then Ussing chamber acid-pepsin injury test (60 mM HCl, pH 1.6, 1 mg/ml pepsin); conditions: FIG. 12
Procedure: as §2
FIG. 12 is a graph showing the protective effect against an acid-pepsin mixture after in vivo delivery of CDDD-1193 in drinking water. A rabbit spontaneously drank 25 ml of water containing 0.6 mg (40 μM) or 0.06 mg (4 μM) CDDD-1193 once-a-day for 4 consecutive days or water alone. On day 5, the rabbits were sacrificed and three sections of esophageal epithelium mounted in Ussing chambers from each rabbit. After equilibration in Ringer solution, all tissues were acidified by luminal addition of 60 mM HCl , pH 1.6, containing 1 mg/ml pepsin, for 1 hour. Electrical resistance, R, was monitored and plotted as percent initial R (%) at the end of 1 hour of acid-pepsin exposure. […] N=3 tissues; * p<0.05 compared to controls.

[4] = then 60 mM HCl pH 1.6 for 1 hour
[5] = agent in luminal bath 30 min before and continuously during 60 mM HCl, R as % of initial R, FIG. 1, 2

O=S(=O)([O-])OCC(Oc1ccccc1)c1ccccc1.[Na+] (centres unmarked) [CDDD-1185, 2-Phenoxy-2-phenylethanesulfate, sodium salt]
protective activity, Resistance Index (RI)=[(Ragent/Rcontrol)-1], RI >0.2 considered significant [1]: may have significant protective activity

O=S(=O)(O)OC[C@@H](OS(=O)(=O)O)[C@@H](Oc1ccccc1)c1ccccc1.[Na].[Na] [CDDD-1187, (2R, 3S)-3-Phenoxy-3-phenylpropane-1,2-disulfate, disodium salt]
protective activity, Resistance Index (RI)=[(Ragent/Rcontrol)-1], RI >0.2 considered significant [1]: may have significant protective activity

O=S(=O)([O-])OCC(Oc1ccc(Cl)cc1S(=O)(=O)[O-])c1ccccc1.[Na+].[Na+] (centres unmarked) [CDDD-1188, 2-(4-Chloro-2-sulfophenoxy)-2-phenylethanesulfate, disodium salt]
protective activity, Resistance Index (RI)=[(Ragent/Rcontrol)-1], RI >0.2 considered significant [1]: may have significant protective activity

O=S(=O)(O)OCC(OS(=O)(=O)O)C(Oc1ccccc1)c1ccc(N=C=S)cc1 [CDDD-1192, Disodium (2S, 3R)-3-(4-isothiocyanatophenyl)-3-phenoxypropane-1,2-disulfate]
protection against acid injury after brief luminal exposure [1, 4]: retain significant protection | lowest protective dose ([1]; agent in luminal bath 30 min before and during 60 mM HCl, FIG. 3): 0.004 mM

O=S(=O)(O)OC[C@H](OS(=O)(=O)O)[C@H](Oc1ccc(N=C=S)cc1)c1ccc(N=C=S)cc1.[Na].[Na] [CDDD-1193, Disodium (2S, 3R)-3-(4-isothiocyanophenoxy)-3-(4-isothiocyanatophenyl)propane-1,2-disulfate]
protective effect after in vivo delivery in drinking water ([2]; 4 μM (0.06 mg in 25 ml water) once-a-day for 4 days, FIG. 10B): significantly protective | duration of protective effects after the last dose ([2]; 4 μM in drinking water once-a-day for 4 days, FIG. 10B): at least 24 hrs | protective effect after in vivo delivery in drinking water ([2]; 40 μM (0.6 mg in 25 ml water) once-a-day for 4 days, FIG. 10A): significantly protective | duration of protective effects after the last dose ([2]; 40 μM in drinking water once-a-day for 4 days, FIG. 10A): at least 24 hrs | protective effect, repeated exposures ([1]; 400 nM, 1 min every 5 min times ten exposures, then 60 mM HCl pH 1.6 for 1 hour, FIG. 7): protective | protective effect, single exposure ([1]; 400 nM, then 60 mM HCl pH 1.6 for 1 hour, FIG. 7): little protection | protective effect, repeated exposures ([1]; 1 μM, 1 min every 5 min times 5 or ten exposures, then 60 mM HCl pH 1.6 for 1 hour, FIG. 8): cumulative with repeated exposures | protective effect, single exposure ([1]; 1 μM, then 60 mM HCl pH 1.6 for 1 hour, FIG. 8): modestly protective | protection against acid injury after brief luminal exposure [1, 4]: retain significant protection | protective effect after brief luminal exposure ([1]; 1 min exposure to 4 mM, multiple washouts over 8 hours, then 60 mM HCl pH 1.6 for 1 hour, FIG. 6): substantial | persistence of protective effect ([1]; 1 min exposure to 4 mM, repeated washes before 60 mM HCl pH 1.6, FIG. 6): 8 h | lowest protective dose ([1]; agent in luminal bath 30 min before and during 60 mM HCl, FIG. 4): 4e-05 mM | protective effect against acid-pepsin after in vivo delivery in drinking water ([3]; 4 μM (0.06 mg in 25 ml water) once-a-day for 4 days): significantly protective | protective effect against acid-pepsin after in vivo delivery in drinking water ([3]; 40 μM (0.6 mg in 25 ml water) once-a-day for 4 days): significantly protective | duration of protective effect against acid-pepsin after the last dose ([3]; 40 μM and 4 μM in drinking water once-a-day for 4 days): at least 24 hours

CC(=O)Nc1ccc(C=Cc2ccc(N=C=S)cc2S(=O)(=O)O)c(S(=O)(=O)O)c1 [SITS, 4-acetamido-4′-isothiocyanatostilbene-2-2′-disulfonic acid, reference compound]
protective effect after in vivo delivery in drinking water ([2]; 4 mM (50 mg in 25 ml water) once-a-day for 4 days, FIG. 11): significantly protective | duration of protective effects after the last dose ([2]; 4 mM in drinking water once-a-day for 4 days, FIG. 11): at least 24 hrs | protection against acid injury after brief luminal exposure [1, 4]: retain significant protection | lowest protective dose [1, 5]: 0.1 mM

O=S(=O)(O)OC[C@H]1O[C@@](COS(=O)(=O)O)(O[C@H]2O[C@H](COS(=O)(=O)O)[C@@H](OS(=O)(=O)O)[C@H](OS(=O)(=O)O)[C@H]2OS(=O)(=O)O)[C@@H](OS(=O)(=O)O)[C@@H]1OS(=O)(=O)O [SOS, sucrose octasulfate, reference compound]
protection against acid injury after brief luminal exposure [1, 4]: retain significant protection | lowest protective dose [1, 5]: 1 mM
